SMILES strings stand for the structures. Values after ≈ are worked out from the molar mass of the structure shown.

The test system of one data set is Staph. aureus. Description: Minimum inhibitory concentration for bacteria, tube dilution, Staph. aureus (Table V). Particulars: Staphylococcus aureus, 48 h, read-out: Minimum Inhibitory Concentration, Staph. aureus.
Another data set relates to Staphylococcus aureus. Description: Agar well inhibition zone test against bacteria, Staphylococcus aureus (Table III). Particulars: quantity per well giving inhibition zone (500, 50, 5 μg tested); nutrient agar, 37°, 24 hours.
Another data set concerns Escherichia coli. Description: Agar well inhibition zone test against bacteria, Escherichia coli (Table III). The conditions noted are these: quantity per well giving inhibition zone (500, 50, 5 μg tested); nutrient agar, 37°, 24 hours.
The test system of another data set is Aspergillus niger. Description: Agar well inhibition zone test against fungi, Aspergillus niger (Table II). Particulars: quantity per well giving inhibition zone (500, 50, 5 μg tested); Sabouraud agar, 28°, 48 hours.
The test system of data set [1] is E. coli. Description: Minimum inhibitory concentration for bacteria, tube dilution, E. coli (Table V). It counts as cell-based. Particulars: Escherichia coli, 48 h, read-out: Minimum Inhibitory Concentration, E. coli.
Data set [2] concerns E. coli. As to the kind of experiment: Minimum inhibitory concentration for bacteria in presence of serum, E. coli (Table VII). Type of data set: cell-based. The conditions noted are these: Escherichia coli; nutrient broth + 10% serum, 37°C, 48 hours.
The next data set relates to Candida albicans. As to the kind of experiment: Agar well inhibition zone test against fungi, Candida albicans (Table II). The conditions noted are these: quantity per well giving inhibition zone (500, 50, 5 μg tested); Sabouraud agar, 28°, 48 hours.
A short description of a further data set: Solubility in water. It counts as physicochemical. The conditions noted are these: hydrochlorides or oxalates, read-out: solubilities (in water). The gist of the method:
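Water solubility given for the hydrochloride salts of most compounds and for the oxalate salts of a few.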

Data set [3] has as its system C. albicans. As to the kind of experiment: Minimum inhibitory concentration for fungi in presence of serum, C. albicans (Table VI). Type of data set: cell-based. Particulars: Candida albicans; Sabouraud nutrient broth + 10% bovine serum, 28°C, 48 hours.
Data set [4] deals with A. niger. Description: Minimum inhibitory concentration for fungi, tube dilution, A. niger (Table IV). Particulars: Aspergillus niger, 48 h, read-out: Minimum Inhibitory Concentration, A. niger.
Description: (§1) A tube dilution series of the respective compound in Sabouraud nutrient broth, whose individual tubes contained concentrations of 1024 μg, 512 μg, 256 μg, 128 μg, 64 μg, 32 μg, 16 μg, 8 μg, 4 μg, 2 μg, 1.1 μg and 0.5 μg/ml, was prepared and inoculated with a photometrically standardized suspension of the test organisms or the spores thereof.
Data set [5] concerns C. albicans. As to the kind of experiment: Minimum inhibitory concentration for fungi, tube dilution, C. albicans (Table IV). The conditions noted are these: Candida albicans, 48 h, read-out: Minimum Inhibitory Concentration, C. albicans.
Description: as §1
In data set [6] the test system is A. niger. As to the kind of experiment: Minimum inhibitory concentration for fungi in presence of serum, A. niger (Table VI). Type of data set: cell-based. The conditions noted are these: Aspergillus niger; Sabouraud nutrient broth + 10% bovine serum, 28°C, 48 hours.
Data set [7] deals with Mycobacterium tuberculosis II 37 RV (typus humanus). Description: Efficacy against Mycobacteria, Tb-broth dilution series (Table I). It counts as cell-based. Particulars: 504 h, Dubos Tb-broth + 10% bovine serum, 21 days, read-out: Minimum Inhibitory Concentration. (In general: Broth dilution looks for growth in wells or tubes with falling amounts of substance.)

Description for Aspergillus niger: The efficacy of the compounds against fungi was tested as follows:
The test organisms, in this case the blastomycete Candida albicans and the mold Aspergillus niger, were inoculated onto Sabouraud agar plates by pouring a photometrically adjusted standard suspension of organisms on the plate. After inoculation, wells with a diameter of 5.0 mm were punched in the agar, and filled with 50 ul of the compound solution mentioned before. The quantity of compound applied thus amounted to 500 μg, 50 μg and 5 μg. After incubation at 28° for 48 hours, the quantity of compound was determined at which an inhibition of the organism's growth, in form of an inhibition zone around the corresponding well, was present.
Description for Staph. aureus: A tube dilution series of the respective compound in nutrient broth whose individual tubes contained concentrations of 1024 μg, 512 μg, 256 μg, 128 μg, 64 μg, 32 μg, 1 μg, 8 μg, 4 μg, 2 μg, 1.1 μg and 0.5 μg/ml was prepared and inoculated with a photometrically standardized suspension of the test organisms.
Description for Staphylococcus aureus: The efficacy of the compounds against bacteria was tested as follows:
The test organisms, in this case Staphylococcus aureus and Escherichia coli, were inoculated on nutrient agar as described in Example 12, wells were punched, and the solutions of the compounds were transferred to fill the wells. The quantity of compound in the wells amounted again to 500 μg, 50 μg and 5 μg.
After incubation a 37° for 24 hours the quantity of compound was determined at which an inhibition of the organism's growth, in the form of an inhibition zone around the corresponding well, occurred.

`CCCCCCCCNCCCCCCN1CCN(C(C)C(=Cc2ccccc2)Cc2ccccc2)CC1` (stereo not drawn) [XL, 1-phenyl-2-benzyl-3-[4'-(w-n-octyl-amino-n-hexyl)piperazino-1']-butene-1]: the MIC in the data set with Staph. aureus was under 0.5 µg/mL; in the data set with E. coli [1] it was 32 µg/mL (≈ 61.8 µM); with E. coli [2], 1020 µg/mL; with C. albicans [3] it was 64 µg/mL; with A. niger [4], under 0.5 µg/mL; in the data set with C. albicans [5] it was under 0.5 µg/mL. Also, the MIC in the data set on A. niger [6] came out at 2 µg/mL. In addition, the “Inhibition Area at μg, Staph. aureus” value in the data set on Staphylococcus aureus turned out to be 5 µg. Also, the “Inhibition Area at μg, E. coli” value with Escherichia coli stood at 5 µg. For the same molecule, the “Inhibition Area at μg, Asp. niger” value in the data set on Aspergillus niger was 5 µg. Moreover, in the data set with Candida albicans, the “Inhibition Area at μg, Cand. albicans” value was 5 µg. Besides, the solubility in “Solubility in water” was 10 mg/mL (≈ 19300 µM).
For the molecule `CNCCCCCCN1CCN(C(C)C(=Cc2ccccc2)Cc2ccccc2)CC1` (stereo not drawn) [XLI, 1-phenyl-2-benzyl-3-[4'-(w-methyl-amino-n-hexyl)piperazino-1']-butene-1], the MIC is 32 µg/mL (≈ 76.3 µM) in the data set with Staph. aureus; 32 µg/mL (≈ 76.3 µM) with E. coli [1]; 512 µg/mL in the data set with E. coli [2]; 128 µg/mL in the data set with C. albicans [3]; 1 µg/mL (≈ 2.38 µM) in the data set on A. niger [4]; 2 µg/mL (≈ 4.77 µM) with C. albicans [5]. In addition, the MIC in the data set on A. niger [6] came out at 8 µg/mL. Also, the “Inhibition Area at μg, Staph. aureus” value with Staphylococcus aureus was found to be 50 µg. Further, the “Inhibition Area at μg, E. coli” value in the data set with Escherichia coli was determined as 50 µg. Besides, in the data set with Aspergillus niger, the “Inhibition Area at μg, Asp. niger” value was 5 µg. Also, the “Inhibition Area at μg, Cand. albicans” value in the data set on Candida albicans was found to be 5 µg. For the same molecule, the solubility in the data set “Solubility in water” is 100 mg/mL (≈ 238000 µM).
For the molecule `CC(C(=Cc1ccc(Cl)cc1)Cc1ccc(Cl)cc1)N1CCN(CCN2CCN(C)CC2)CC1` (stereo not drawn) [XLII, 1-p-chloro-phenyl-2-p-chloro-benzyl-3-{4'-[β-(4"-methyl-piperazino-1")-ethyl]-piperazino-1'}-butene-1], the MIC is 32 µg/mL (≈ 63.8 µM) in the data set on Staph. aureus; 32 µg/mL (≈ 63.8 µM) in the data set on E. coli [1]; 1020 µg/mL in the data set on E. coli [2]; 256 µg/mL in the data set on C. albicans [3]; under 0.5 µg/mL in the data set with A. niger [4]; under 0.5 µg/mL in the data set on C. albicans [5]. For the same molecule, the MIC in the data set on A. niger [6] was 32 µg/mL. Besides, in the data set with Staphylococcus aureus, the “Inhibition Area at μg, Staph. aureus” value was 5 µg. For the same molecule, in the data set with Escherichia coli, the “Inhibition Area at μg, E. coli” value was determined as 5 µg. In addition, in the data set with Aspergillus niger, the “Inhibition Area at μg, Asp. niger” value was 5 µg. In addition, the “Inhibition Area at μg, Cand. albicans” value in the data set on Candida albicans came to 5 µg. Besides, the solubility in the data set “Solubility in water” came to 100 mg/mL (≈ 199000 µM).
On to `CCCCCCCC[N+](C)(C)CCN1CCN(C(C)C(=Cc2ccccc2)Cc2ccccc2)CC1` (stereo not drawn) [XLIII, Dimethyl-n-octyl-β-[4-(1'-phenyl-2'-benzylbutene-1'-yl-3')-piperazino-1]-ethyl-ammoniumbromide], for which the MIC is under 0.5 µg/mL in the data set on Staph. aureus; 1 µg/mL in the data set on E. coli [1]; 128 µg/mL in the data set on E. coli [2]; 128 µg/mL with C. albicans [3]; under 0.5 µg/mL with A. niger [4]; under 0.5 µg/mL in the data set on C. albicans [5]. Besides, the MIC with A. niger [6] is 64 µg/mL. For the same molecule, the “Inhibition Area at μg, Staph. aureus” value with Staphylococcus aureus is 5 µg. Besides, the “Inhibition Area at μg, E. coli” value with Escherichia coli worked out at 5 µg. The “Inhibition Area at μg, Asp. niger” value with Aspergillus niger was 5 µg. In addition, the “Inhibition Area at μg, Cand. albicans” value in the data set with Candida albicans was 5 µg. In addition, in “Solubility in water”, the solubility is under 10 mg/mL.
As for `CC(N1CCN(CCO)CC1)C(O)(Cc1ccc(Cl)cc1)Cc1ccc(Cl)cc1` (stereo not drawn) [XLVII, 1-(p-Chloro-phenyl)-2-(p-chloro-benzyl)-3-[4'-(β-hydroxyethyl)-piperazino-1']-butanol-2], the MIC with Staph. aureus was 4 µg/mL (≈ 9.14 µM); in the data set with E. coli [2], over 1020 µg/mL; with C. albicans [3], 256 µg/mL; in the data set on A. niger [4] it was 32 µg/mL (≈ 73.2 µM); in the data set on C. albicans [5], 32 µg/mL (≈ 73.2 µM); in the data set on A. niger [6] it was 64 µg/mL. Moreover, the “Inhibition Area at μg, Staph. aureus” value with Staphylococcus aureus was 5 µg. Besides, the “Inhibition Area at μg, E. coli” value with Escherichia coli was 500 µg. The “Inhibition Area at μg, Asp. niger” value in the data set with Aspergillus niger amounted to 5 µg. Also, the “Inhibition Area at μg, Cand. albicans” value in the data set on Candida albicans was 5 µg. In addition, the solubility in “Solubility in water” came to 100 mg/mL (≈ 229000 µM).
Turning to `CC(N1CCN(C)CC1)C(O)(Cc1ccc(Cl)cc1)Cc1ccc(Cl)cc1` (stereo not drawn) [XLVIII, 1-p-chlorophenyl-2-p-chlorobenzyl-3-(4'-methyl-piperazino-1')-butanol-2], the MIC with Staph. aureus is 128 µg/mL (≈ 314 µM); with E. coli [1] it was over 1020 µg/mL; with C. albicans [3], over 1020 µg/mL; in the data set on A. niger [4], 4 µg/mL (≈ 9.82 µM); with C. albicans [5] it was 8 µg/mL (≈ 19.6 µM); with A. niger [6], 256 µg/mL. The “Inhibition Area at μg, Staph. aureus” value in the data set with Staphylococcus aureus was 50 µg. For the same molecule, the “Inhibition Area at μg, E. coli” value with Escherichia coli worked out at 50 µg. Moreover, in the data set on Aspergillus niger, the “Inhibition Area at μg, Asp. niger” value was determined as 50 µg. In the data set with Candida albicans, the “Inhibition Area at μg, Cand. albicans” value is 50 µg. The solubility in the data set “Solubility in water” is 50 mg/mL (≈ 123000 µM).
In the case of `CNCCN1CCN(C(C)C(=Cc2ccccc2)Cc2ccccc2)CC1` (stereo not drawn) [XXV, 1-phenyl-2-benzyl-3-[4'-(β-methylamino-ethyl)-piperazino-1']-butene-1], the MIC was determined as 64 µg/mL (≈ 176 µM) with Staph. aureus; 64 µg/mL (≈ 176 µM) with E. coli [1]; 512 µg/mL in the data set with E. coli [2]; 256 µg/mL with C. albicans [3]; 8 µg/mL (≈ 22 µM) with A. niger [4]; 64 µg/mL (≈ 176 µM) with C. albicans [5]. Further, the MIC stood at 64 µg/mL in the data set with A. niger [6] and 10 µg/mL in data set [7]. In addition, in the data set on Staphylococcus aureus, the “Inhibition Area at μg, Staph. aureus” value came to 5 µg. Besides, the “Inhibition Area at μg, E. coli” value with Escherichia coli stood at 50 µg. Moreover, the “Inhibition Area at μg, Asp. niger” value with Aspergillus niger was 5 µg. Further, the “Inhibition Area at μg, Cand. albicans” value with Candida albicans was 5 µg. The solubility in the data set “Solubility in water” amounted to 100 mg/mL (≈ 275000 µM).
As for `CC(C(=Cc1ccccc1)Cc1ccccc1)N1CCN(CCN(C)C)CC1` (stereo not drawn) [XXVI, 1-phenyl-2-benzyl-3-[4'-(β-dimethylamino-ethyl)-piperazino-1']-butene-1], the MIC with Staph. aureus came to 128 µg/mL (≈ 339 µM); in the data set with E. coli [1], 128 µg/mL (≈ 339 µM); in the data set with C. albicans [3], 16 µg/mL; with A. niger [4], 4 µg/mL (≈ 10.6 µM); in the data set on C. albicans [5], 8 µg/mL (≈ 21.2 µM); in the data set with A. niger [6], 32 µg/mL. In addition, the “Inhibition Area at μg, Staph. aureus” value with Staphylococcus aureus was 50 µg. Besides, in the data set on Escherichia coli, the “Inhibition Area at μg, E. coli” value amounted to 50 µg. The “Inhibition Area at μg, Asp. niger” value in the data set on Aspergillus niger turned out to be 5 µg. Further, the “Inhibition Area at μg, Cand. albicans” value in the data set with Candida albicans worked out at 5 µg. Further, in “Solubility in water”, the solubility is 100 mg/mL (≈ 265000 µM).
For the molecule `CC(C(=Cc1ccccc1)Cc1ccccc1)N1CCN(CCN2CCN(CCc3ccccc3)CC2)CC1` (stereo not drawn) [XXXIX, 1-phenyl-2-benzyl-3-{4'-[β-(4"-β-phenethylpiperazino-1")-ethyl]-piperazino-1'}-butene-1], the MIC in the data set with Staph. aureus is 32 µg/mL (≈ 61.2 µM); in the data set with E. coli [1], over 1020 µg/mL; in the data set with C. albicans [3], 64 µg/mL; in the data set with A. niger [4] it was 32 µg/mL (≈ 61.2 µM); in the data set on C. albicans [5], 4 µg/mL (≈ 7.65 µM); in the data set with A. niger [6], 128 µg/mL. Also, in the data set with Staphylococcus aureus, the “Inhibition Area at μg, Staph. aureus” value was 5 µg. Besides, in the data set on Escherichia coli, the “Inhibition Area at μg, E. coli” value stood at 50 µg. For the same molecule, the “Inhibition Area at μg, Asp. niger” value in the data set with Aspergillus niger was found to be 5 µg. Besides, in the data set with Candida albicans, the “Inhibition Area at μg, Cand. albicans” value was 5 µg. Further, the solubility in the data set “Solubility in water” worked out at 50 mg/mL (≈ 95600 µM).

(Values after patent US3947411A, “Novel 1-aryl-2-arylalkyl-3-or-4-[4'-(substituted-alkyl)piperazino-1']butanols- 2-or-butenes-1, and methods of manufacture thereof” (Warner-Lambert Company, priority 1972, dated 1976).)
